The values that follow come from patent US7670991B2, “Substituted benzoylcyclohexenones and their use as herbicidal agents” (Bayer CropScience AG, priority 2001, dated 2010).

Each structure is given as a SMILES string.

One data set can be described thus: log P by reversed-phase HPLC (C 18), acidic range. The conditions noted are these: marked a): acidic range, 0.1% aqueous phosphoric acid, acetonitrile; HPLC reversed-phase column (C 18); 43° C. Format: physicochemical. The protocol:
Temperature: 43° C. (a) Mobile phases for the determination in the acidic range: 0.1% aqueous phosphoric acid, acetonitrile; linear gradient from 10% acetonitrile to 90% acetonitrile—the corresponding measurement results are marked ^a) in Table 1.
For `CON(C)C(=O)Nc1c(Cl)ccc(C(=O)C2=C(O)CC(C)CC2=O)c1Cl` (racemic) [Example 3-1], the logP result is recorded as “(I-2) logP = 2.33^a)”.
With `CC1CC(=O)C(C(=O)c2ccc(Cl)c(NC(=O)N3CCCO3)c2Cl)=C(O)C1` (racemic) [Example 3-61], the logP entry was “(I-2) logP = 2.25^a)”.
Same read-out and setting: under `CC1CC(=O)C(C(=O)c2ccc(Cl)c(NC(=O)N3CCCCO3)c2Cl)=C(O)C1` (racemic) [Example 3-69] stands “(I-2) logP = 2.52^a)”.

Staying with this data set, now noted: marked a): acidic range, 0.1% aqueous phosphoric acid/acetonitrile gradient, HPLC C 18, 43° C.
Turning to `CCN(CC)C(=O)Nc1c(Cl)ccc(C(=O)C2=C(O)CCCC2=O)c1Cl` [Example 1-7], the logP result is reported as “(I-2) logP = 2.21^a)”.
On the same count and under the same terms, under `CNC(=O)Nc1c(Cl)ccc(C(=O)C2=C(O)CCCC2=O)c1Cl` [Example 1-8] stands “(I-2) logP = 1.46^a)”.
Turning to `CCNC(=O)Nc1c(Cl)ccc(C(=O)C2=C(O)CCCC2=O)c1Cl` [Example 1-9], the logP result was “(I-2) logP = 1.70^a)”.
Same read-out and setting: under `CN(C)C(=O)Nc1c(Cl)ccc(C(=O)C2=C(O)CCCC2=O)c1Cl` [Example 1-10] stands “(I-2) logP = 1.64^a)”; under `CC(C)NC(=O)Nc1c(Cl)ccc(C(=O)C2=C(O)CCCC2=O)c1Cl` [Example 1-12], “(I-2) logP = 1.99^a)”; under `O=C(Nc1c(Cl)ccc(C(=O)C2=C(O)CCCC2=O)c1Cl)NC1CC1` [Example 1-13], “(I-2) logP = 1.77^a)”.
Same read-out and setting: the value for `O=C1CCCC(O)=C1C(=O)c1ccc(Cl)c(NC(=O)N2CCCC2)c1Cl` [Example 1-16] was “(I-2) logP = 1.90^a)”.
The same measure, in the same setting: under `CCN1CCCN(C(=O)Nc2c(Cl)ccc(C(=O)C3=C(O)CCCC3=O)c2Cl)C1=O` [Example 1-23] stands “(I-2) logP = 2.65^a)”.
Turning to `CC(C)N1CCCN(C(=O)Nc2c(Cl)ccc(C(=O)C3=C(O)CCCC3=O)c2Cl)C1=O` [Example 1-25], the logP entry was “(I-2) logP = 2.98^a)”.
On to `O=C(NCC1CCCO1)Nc1c(Cl)ccc(C(=O)C2=C(O)CCCC2=O)c1Cl` (centres unmarked) [Example 1-33], for which the logP entry was “(I-2) logP = 1.81^a)”.
Same read-out and setting: under `COC(CNC(=O)Nc1c(Cl)ccc(C(=O)C2=C(O)CCCC2=O)c1Cl)OC` [Example 1-35] stands “(I-2) logP = 1.72^a)”; under `O=C(Nc1nnc(C(F)(F)F)s1)Nc1c(Cl)ccc(C(=O)C2=C(O)CCCC2=O)c1Cl` [Example 1-40], “(I-2) logP = 2.78^a)”; under `CN1CCN(C(=O)Nc2cc(C(F)(F)F)ccc2C(=O)C2=C(O)CCCC2=O)C1=O` [Example 1-100], “(I-1) logP = 2.57^a)”.
Same read-out and setting: the value for `O=C(Nc1c(Cl)ccc(C(=O)C2=C(O)CCCC2=O)c1Cl)NN1CCCC1` [Example 1-101] was “(I-2) logP = 1.94^a)”; that for `O=C1CCCC(O)=C1C(=O)c1ccc(Cl)c(NC(=O)N2CCCN(C3CCCCC3)C2=O)c1Cl` [Example 1-103] was “(I-2) logP = 3.86^a)”.
Turning to `CN1CCN(C(=O)N(C)c2cc(C(F)(F)F)ccc2C(=O)C2=C(O)CCCC2=O)C1=O` [Example 1-104], the logP entry was “(I-1) logP = 2.04^a)”.
Take `O=C1CCCC(O)=C1C(=O)c1ccc(Cl)c(NC(=O)N2CCCCC2)c1Cl` [Example 1-105]: the logP entry is recorded as “(I-2) logP = 2.26^a)”.
Same read-out and setting: under `NC(=O)Nc1c(Cl)ccc(C(=O)C2=C(O)CCCC2=O)c1Cl` [Example 1-106] stands “(I-2) logP = 1.29^a)”; under `CCCNC(=O)Nc1c(Cl)ccc(C(=O)C2=C(O)CCCC2=O)c1Cl` [Example 1-107], “(I-2) logP = 1.98^a)”; under `CONC(=O)Nc1c(Cl)ccc(C(=O)C2=C(O)CCCC2=O)c1Cl` [Example 1-108], “(I-2) logP = 1.58^a)”.
The same measure, in the same setting: the value for `CCCN(CCC)C(=O)Nc1c(Cl)ccc(C(=O)C2=C(O)CCCC2=O)c1Cl` [Example 1-109] was “(I-2) logP = 2.95^a)”; that for `COc1cc(NC(=O)N2CCN(C)C2=O)ccc1C(=O)C1=C(O)CCCC1=O` [Example 1-110] was “(I-3) logP = 1.93^a)”.
Take `O=C1CCCC(O)=C1C(=O)c1ccc(Cl)c(NC(=O)c2cccs2)c1Cl` [Example 1-111]: the logP entry is given as “(I-2) logP = 2.34^a)”.
